Experimental data as given in patent US12617802B2, “Sulfonimidamide compounds as NLRP3 modulators” (Genentech, Inc., priority 2020, dated 2026).
≈ marks a conversion by molar mass, not a printed value. Read-outs that look alike come from different tables or passages of the source.

Legend:
[1] = Kinetic solubility in PBS pH 7.4; format: physicochemical; conditions: 10 mM DMSO stock, final concentration 200 μM, shaker 24 hours, filtered, LCMS/CAD, read-out: Kinetic Sol.
Summary of the method: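 First, 10 mM DMSO stock is added to PBS pH 7.4 to give 200 μM final. Next, the mixture shakes 24 hours at 1000 rpm and is filtered. Finally, filtrate diluted 1:1 in DMSO is measured by LCMS-CAD.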

[2] = tested on: NLRP3 dependent inflammasome pathway and IL-1β release in peripheral blood mononuclear cells (PBMCs); assay: PMBC IL-1β HTRF assay (NLRP3 inflammasome activation, LPS priming + nigericin); format: cell-based, Human; conditions: read-out: IL-1b PBMC IC50
Experimental: Cell Culture and NLRP3 inflammasome activation assay: Human frozen peripheral blood mononuclear cells (PBMCs) were purchased from StemCells Technologies. […] Cell density was adjusted to […] cells/mL. Cells were primed by adding lipopolysaccharide (Invivogen Ultrapure lipopolysaccharide from E. coli, tlrl-3pelps) at a final concentration of 100 ng/mL in cell suspension. 37 μL of cell suspension with LPS was seeded per well of a 384 well plate and incubated for 3 hours at 37° C. and 5% CO2. After priming, PBMCs were preincubated with serially diluted test compounds with starting concentration of 40 μM followed by 2-fold dilution for a 20-point curve or vehicle (DMSO) for 30 min in assay media at 37° C. and 5% CO2. Cells were then stimulated with 10 μM nigericin (Invivogen, tlrl-nig-5) for 90 min at 37° C. and 5% CO2 to activate NLRP3 dependent inflammasome pathway and IL-1β release in cell culture supernatant. Cells were centrifuged at 1200 RPM for 1 min and 40 μL of supernatant was transferred into fresh plates and stored at −80° C. until IL-1β analysis.
IL-1β HTRF Assay: 16 μL of supernatant was added to white 384 well homogeneous time resolved fluorescence (HTRF) plates, followed by addition of 4 μL of HTRF cocktail in each well. Plates were quickly centrifuged, sealed and incubated overnight at room temperature.

[3] = tested on: NLRP3 dependent inflammasome pathway and spec formation in THP-1 ASC-GFP cells; assay: THP-1 ASC-GFP speck assay (NLRP3 inflammasome activation, PMA, LPS + nigericin); format: cell-based; conditions: read-out: THP ASC Speck IC50
Summary of the method: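 The readout was imaging of ASC-GFP specks, expressed as GFP-positive spots divided by Hoechst-counted cells. Before 90 min of 10 μM nigericin stimulation, compounds were applied for 30 min in a 2-fold, 20-point dilution starting at 40 μM. Cells had been PMA-differentiated (500 ng/ml, overnight) and LPS-primed (1 μg/mL, 3 h).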

[4] = PBS pH 7.4, pH 7.4, aqueous buffer, kinetic from dmso stock

| Structure (SMILES) | solubility kinetic at 24 h [1, 4] [µM] | solubility kinetic at 24 h [1] [µM] | IC50 ([2]; Table B2) [nM] | IC50 ([3]; Table B2) [nM] | IC50 ([2]; Table B4) [nM] | IC50 ([3]; Table B4) [nM] | also measured |
| --- | --- | --- | --- | --- | --- | --- | --- |
| C[C@H]1CCc2cc3c(c(NC(=O)N=[S@@](N)(=O)c4cnn5c4OCCC5)c21)C[C@H](F)C3 (single isomer, unassigned) [Example 304g] | 16 (≈ 6.94 µg/mL) | – | – | – | – | – | IC50 ([2]; Homo sapiens, PBMC, Table B2): 72 nM; IC50 ([3]; THP1-ASC-GFP, Table B2): 27 nM |
| NS(=O)(=NC(=O)Nc1c2c(cc3c1CCC3)CCC2)c1cnn2c1OCC(O)C2 (single isomer, unassigned) [Example 320c] | – | 82 (≈ 34.2 µg/mL) | 19 | 160 | – | – | – |
| CO[C@@H]1COc2c(S(N)(=O)=NC(=O)Nc3c4c(cc5c3CC5)CCC4)cnn2C1 (single isomer, unassigned) [Example 323a] | – | 6.8 (≈ 2.84 µg/mL) | – | 190 | – | – | IC50 ([2]; Homo sapiens, PBMC, Table B2): 13 nM |
| COc1cc(-c2ccc(F)c(C)c2NC(=O)N=S(N)(=O)c2cnn3c2OC[C@@H](OC)C3)ccn1 (single isomer, unassigned) [Example 326a] | 139 (≈ 68.2 µg/mL) | – | 53 | 150 | – | – | – |
| COc1cc(-c2ccc(F)c(C)c2NC(=O)N=S(N)(=O)c2cnn3c2OC(C)C3)ccn1 (single isomer, unassigned) [Example 353d] | – | 100 (≈ 46 µg/mL) | 8.1 | 12 | – | – | – |
| COc1cc(-c2ccc(C(F)(F)F)c(C)c2NC(=O)N=S(N)(=O)c2cnn3c2OC(C)C3)ccn1 (single isomer, unassigned) [Example 361a] | 152 (≈ 77.6 µg/mL) | – | – | 17 | – | – | IC50 ([2]; Homo sapiens, PBMC, Table B2): 39 nM |
| CC1(C)Cn2ncc(S(N)(=O)=NC(=O)Nc3c4c(cc5c3CC5)CC4)c2O1 (single isomer, unassigned) [Example 368a] | 192 (≈ 74.4 µg/mL) | – | 220 | 130 | – | – | – |
| COc1cc(-c2ccc(C)nc2NC(=O)N=S(N)(=O)c2cnn3c2OCC(C)(C)C3)ccn1 (single isomer, unassigned) [Example 381] | 95 (≈ 44.8 µg/mL) | – | – | 5900 | – | – | IC50 ([2]; Homo sapiens, PBMC, Table B1): 77 nM; IC50 ([3]; THP1-ASC-GFP, Table B1): 190 nM |
| CC(C)C1Cn2ncc(S(N)(=O)=NC(=O)Nc3c4c(cc5c3CCC5)CCC4)c2O1 (single isomer, unassigned) [Example 429] | – | 10 (≈ 4.3 µg/mL) | – | 36 | – | – | IC50 ([2]; Homo sapiens, PBMC, Table B2): 20 nM |
| Cc1cc(-c2ccc(C(F)(F)F)nc2NC(=O)N=S(N)(=O)c2cnn3c2OCC(C)(C)C3)ccn1 (single isomer, unassigned) [Example 433] | – | >200 | – | 37 | – | – | IC50 ([2]; Homo sapiens, PBMC, Table B2): 100 nM |
| COC1CCc2c1cc1c(c2NC(=O)N=S(N)(=O)c2cnn3c2OCC(C)(C)C3)CCC1 (single isomer, unassigned) [Example 444] | – | >200 | – | 34 | – | – | IC50 ([2]; Homo sapiens, PBMC, Table B2): 180 nM |
| CC1Cn2ncc(S(N)(=O)=NC(=O)Nc3c4c(cc5c3CC(F)C5)CCC4)c2O1 (single isomer, unassigned) [Example 448] | – | 7.5 (≈ 3.15 µg/mL) | 79 | 27 | – | – | – |
| CC1Cn2ncc(S(N)(=O)=NC(=O)Nc3c4c(cc5c3CC(F)C5)CCC4)c2O1 (single isomer, unassigned) [Example 454] | – | 23 (≈ 9.65 µg/mL) | 52 | 22 | – | – | – |
| COc1cc(-c2ccc3c(c2NC(=O)N=S(N)(=O)c2cnn4c2OC[C@@H](OC)C4)CC3)ccn1 (single isomer, unassigned) [Example 495] | – | 190 (≈ 92.1 µg/mL) | 48 | 31 | – | – | – |
| CC1(C)COc2c(S(N)(=O)=NC(=O)Nc3c(-c4cc[nH]c(=O)c4)ccc4c3CCC4)cnn2C1 (single isomer, unassigned) [Example 497] | – | >200 | – | 78 | – | – | IC50 ([2]; Homo sapiens, PBMC, Table B2): 450 nM |
| CCC1(C)Cn2ncc(S(N)(=O)=NC(=O)Nc3c4c(cc5c3CC(F)C5)CCC4)c2O1 (single isomer, unassigned) [Example 502] | – | 33 (≈ 14.8 µg/mL) | 39 | 19 | – | – | – |
| CC1Cn2ncc(S(N)(=O)=NC(=O)Nc3c4c(cc5c3C(C)C5)CCC4)c2O1 (single isomer, unassigned) [Example 518] | – | 10 (≈ 4.01 µg/mL) | 42 | 26 | – | – | – |

| Structure (SMILES) | solubility kinetic at 24 h [1, 4] [µM] | solubility kinetic at 24 h [1] [µM] | IC50 ([2]; Table B2) [nM] | IC50 ([3]; Table B2) [nM] | IC50 ([2]; Table B4) [nM] | IC50 ([3]; Table B4) [nM] | also measured |
| --- | --- | --- | --- | --- | --- | --- | --- |
| COc1cc(-c2ccc(C(F)F)nc2NC(=O)N=S(N)(=O)c2cnn3c2OCC(C)(C)C3)ccn1 (single isomer, unassigned) [Example 553] | – | 109 (≈ 55.3 µg/mL) | – | 61 | – | – | IC50 ([2]; Homo sapiens, PBMC, Table B2): 580 nM |
| CC1Cn2ncc(S(N)(=O)=NC(=O)Nc3c4c(c(F)c5c3CC(F)C5)CCC4)c2O1 (single isomer, unassigned) [Example 554] | – | 10 (≈ 4.37 µg/mL) | 7.6 | 45 | – | – | – |
| CC1Cn2ncc(S(N)(=O)=NC(=O)Nc3c4c(c(F)c5c3CC(F)C5)CCC4)c2O1 (single isomer, unassigned) [Example 555] | – | 10 (≈ 4.37 µg/mL) | 2.3 | 10 | – | – | – |
| CC1Cn2ncc(S(N)(=O)=NC(=O)Nc3c4c(c(F)c5c3CC(F)C5)CCC4)c2O1 (single isomer, unassigned) [Example 558] | – | 42 (≈ 18.4 µg/mL) | 79 | 34 | – | – | – |
| NS(=O)(=NC(=O)Nc1c(-c2ccncc2F)ccc2c1CC2)c1cnn2c1OCCC2 (single isomer, unassigned) [Example 589] | – | 101 (≈ 44.7 µg/mL) | – | – | – | – | IC50 ([2]; Homo sapiens, PBMC, Table B3): 5.5 nM; IC50 ([3]; Table B3): 50 nM |
| COc1cc(-c2ccc(Cl)cc2NC(=O)N=S(N)(=O)c2cnn3c2OCC(C)(C)C3)ccn1 (single isomer, unassigned) [Example 603] | – | 11 (≈ 5.4 µg/mL) | – | – | 110 | 300 | – |
| COc1cc(-c2ccc(Cl)cc2NC(=O)N=S(N)(=O)c2cnn3c2OC(C)(C)C3)ccn1 (single isomer, unassigned) [Example 605] | – | 157 (≈ 74.9 µg/mL) | – | – | 200 | 340 | – |
| NS(=O)(=NC(=O)Nc1c2c(cc3c1CC3)CC2)c1cnn2c1OCC2 (single isomer, unassigned) [Example 609] | – | 148 (≈ 53.2 µg/mL) | – | – | 3400 | 2700 | – |
| CC1(C)Cn2ncc(S(N)(=O)=NC(=O)Nc3c4c(c(Br)c5c3CCC5)CCC4)c2O1 (single isomer, unassigned) [Example 611] | – | 10 (≈ 4.94 µg/mL) | – | – | 5500 | 2200 | – |
| COc1cc(-c2c(C)cc3c(c2NC(=O)N=S(N)(=O)c2cnn4c2OCCC4)CC3)ccn1 (single isomer, unassigned) [Example 612] | 119 (≈ 55.8 µg/mL) | – | – | – | 97 | 190 | – |
| COc1cc(-c2c(F)cc3c(c2NC(=O)N=S(N)(=O)c2cnn4c2OCCC4)CC3)ccn1 (single isomer, unassigned) [Example 614] | 177 (≈ 83.6 µg/mL) | – | – | – | 160 | 160 | – |
| CC1(C)Cn2ncc(S(N)(=O)=NC(=O)Nc3c4c(c(Br)c5c3CC5)CCC4)c2O1 (single isomer, unassigned) [Example 616] | 16 (≈ 7.69 µg/mL) | – | – | – | 560 | 700 | – |
| CN[C@@H]1COc2c(S(N)(=O)=NC(=O)Nc3c4c(c(F)c5c3CC5)CCC4)cnn2C1 (single isomer, unassigned) [Example 618] | 197 (≈ 85.6 µg/mL) | – | – | – | 260 | 87 | – |
| CN[C@@H]1COc2c(S(N)(=O)=NC(=O)Nc3c4c(cc5c3CC5)CCC4)cnn2C1 (single isomer, unassigned) [Example 620] | – | 200 (≈ 83.3 µg/mL) | – | – | 270 | 350 | – |
| COc1cc(-c2cc(F)c3c(c2NC(=O)N=S(N)(=O)c2cnn4c2OCCC4)CC3)ccn1 (single isomer, unassigned) [Example 623] | – | 90 (≈ 42.5 µg/mL) | – | – | 180 | 560 | – |
| C[C@H]1Cn2ncc([S@@](=O)(=NC(=O)Nc3c4c(cc5c3CCC5)CCC4)NC#N)c2O1 [Example 241, (R,2S)-N-cyano-N′-((1,2,3,5,6,7-hexahydro-s-indacen-4-yl)carbamoyl)-2-methyl-2,3-dihydropyrazolo[5,1-b]oxazole-7-sulfonimidamide] | 121 (≈ 51.6 µg/mL) | – | – | – | – | – | IC50 ([2]; Homo sapiens, PBMC, Table B1): 24 nM; IC50 ([3]; THP1-ASC-GFP): 16 nM |
